{"source": "patent US6949533B2", "about": "“6,7-Oxygenated steroids and uses related thereto” (Inflazyme Pharmaceuticals Ltd., priority 1996, dated 2005)", "key": {"[1]": {"system": "rabbit platelets", "test": "PAF-induced aggregation of rabbit platelets", "type": "cell-based", "conditions": "Oryctolagus cuniculus, Platelet; 80 μM compound, 5 min preincubation; PAF-stimulated rabbit platelets (title: 0.1 nM PAF); read-out: % Inhibition at 80 μM", "from_the_text": "Within the present invention, it was discovered that the polyhydroxylated steroids as well as intermediates described in previous sections inhibited the aggregation of platelets caused by platelet activating factor (PAF). PAF is a local mediator of thrombosis and prevention of the formation of blood clots has direct implication in the treatment of thrombosis and associated cardiovascular diseases. The assay system used to evaluate the ability of compounds to inhibit the aggregation of platelets in response to exogenous stimuli is indicative of anti-thrombotic or thrombolytic activity.\nPlatelets were isolated from rabbit blood and prepared at a density of 2.4×10^8 cells/ml in Tyrodes buffer (pH 7.2) containing Ca^2+. Platelets were incubated with each compound for 5 min at 37° C. prior to stimulation. Platelets were stimulated with 1 nM platelet activating factor (PAF; EC75) in the presence of each of the compounds and aggregation was monitored for 5 min. Compounds were solubilized in dimethylsulfoxide (DMSO) and aggregation was measured as a percentage of the response to 1 nM PAF obtained in the presence of the appropriate concentration of DMSO. The degree of inhibition caused by each sample was calculated using the control response in the presence of DMSO equal to 100%."}, "[2]": {"system": "mouse mast cells (MC/9)", "test": "antigen-induced release of hexosaminidase from MC/9 cells", "type": "cell-based", "conditions": "Mus musculus, MC9, 25 μM compound, read-out: Percentage Inhibition (mean) MC/9 cells", "protocol": "(§1) The anti-allergic effects of various polyhydroxylated steroids of the present invention were evaluated by measuring their effect on antigen-induced secretion of hexosaminidase from a passively sensitized rat mast cell line (RBL-2H3) and a murine mast cell line (MC/9). The ability of agents to inhibit the release of mast cell granule contents, e.g., histamine and hexosaminidase, is indicative of anti-allergy and/or anti-asthma activity.\n(§2) Hexosaminidase is released from the mast cell granule along with histamine and other mediators during antigen challenge. RBL-2H3 and MC/9 cells were grown in culture and passively sensitized to dinitrophenol (DNP) using anti-human-DNP (IgE). Cells were incubated with each compound (25 μM) for 1 hour at 37° C. and then stimulated with 0.1 mg/ml DNP-HSA (antigen) for 15 min. Aliquots of the supernatant were removed and used to measure the amount of hexosaminidase released during challenge with the antigen. The amount of hexosaminidase present in the supernatant was determined calorimetrically by monitoring the enzymatic metabolism of p-nitrophenyl-N-acetyl-β-D-glucosaminide (p-NAG) over a period of 1 hour at 410 nm. The effect of each compound was determined as a percentage of the antigen-induced response (minus background release) obtained in the presence of DMSO alone, as set forth in Tables 2 and 3. These values were used to determine the degrees of inhibition of antigen-induced hexosaminidase release from the cells."}, "[3]": {"system": "guinea pig ileum", "test": "antigen-induced contraction of ileum from sensitized guinea pigs", "conditions": "Cavia porcellus, read-out: Percentage Inhibition, 30 μM compound, n = 3-4", "protocol": "The ability of compounds to inhibit allergen-induced contraction of ileum from sensitized animals is indicative of antiallergic activity. Sensitized guinea pig ileum is particularly useful in measuring the immediate allergic response.\nThe guinea pig ileum has been used to evaluate the ability of compounds to inhibit allergan-induced histamine and mediator release causing smooth muscle contraction. Guinea pigs were sensitized by an intraperitoneal injection of 100 mg ovalbumin and an intramuscular injection of 50 mg ovalbumin on day 0, followed by a second intramuscular injection of 50 mg ovalbumin on day 1. […] Segments of ileum were prepared and suspended, with muscle contractions being measured in the longitudinal plane, in Tyrode's buffer at 37° C. and aerated with 5% CO2 in O2. Tissues were suspended under a resting tension of 2 grams and isometric contractions were measured using force-displacement transducers coupled to a polygraph. Tissues were stimulated with 3 μM histamine 3 times to ensure reproducible contractions were obtained. Tissues were then incubated with each compound (30 μM) or 0.15% dimethylsulphoxide (DMSO) as a control, for 20 min, after which time the tissues were challenged with 100 μg/ml ovalbumin. The magnitude of the contraction induced by OA in the presence of each compound was expressed as a percentage of the contraction obtained to 3 μM histamine. The protective effects of the various compounds on OA-induced contraction of guinea pig ileum from sensitized animals are summarized in Table 4."}, "[4]": {"system": "passively sensitized rat mast cells (RBL-2H3)", "test": "antigen-induced release of hexosaminidase from RBL-2H3 cells", "type": "cell-based", "conditions": "Rattus norvegicus, RBL-2H3, 25 μM compound; antigen-induced hexosaminidase release; read-out: Percentage Inhibition (mean) RBL-2H3 Cells", "protocol": "as §1, §2"}}}
{"compound": "C/C=C1/CCC2C3C(CC[C@]12C)[C@@]1(C)CC[C@@H](O)CC1[C@@H](O)[C@@H]3O", "note": "(stereo partly drawn) [Compound 330, 3α,6α,7β-trihydroxy-17(20)-pregnene]", "values": [{"measurement": "inhibition at 80 µM", "setting": "[1]", "value": 20.9, "unit": "%"}, {"measurement": "inhibition at 25 µM", "setting": "[2]", "value": 49, "unit": "%"}, {"measurement": "inhibition at 30 µM", "setting": "[3]", "value": 70, "unit": "%"}, {"measurement": "inhibition at 25 µM", "setting": "[4]", "value": 59, "unit": "%"}]}
